Measured values published in ChEMBL document CHEMBL5724806, “Unraveling interindividual differences and functional consequences of gut microbial metabolism of immunosuppressants” (2024).

Legend:
Format in all cases: ADME
[1] = (§1) The drug is tested on Dorea formicigenerans strain: DSM3992 for biotransformation under anaerobic condition. The drug concentrations were measured over 6 timepoints collected between 0 and 12 hours of incubation by liquid-chromatography-coupled mass spectrometry (LC–MS); design: dose 5 uM, timepoint 0, 1.5, 3, 6, 9, 12 hours; conditions: 5 µM
[2] = (§2) The drug is tested on Capnocytophaga ochracea strain: DSM7271 for biotransformation under microaerobic condition. The drug concentrations were measured over 6 timepoints collected between 0 and 12 hours of incubation by liquid-chromatography-coupled mass spectrometry (LC–MS); design: dose 5 uM, timepoint 0, 1.5, 3, 6, 9, 12 hours; conditions: 5 µM
[3] = The drug is tested on Clostridium scindens strain: DSM5676 for biotransformation under anaerobic condition. The drug concentrations were measured over 6 timepoints collected between 0 and 12 hours of incubation by liquid-chromatography-coupled mass spectrometry (LC–MS); design: dose 5 uM, timepoint 0, 1.5, 3, 6, 9, 12 hours; conditions: 5 µM
[4] = as §1, with “the gut metagenome community of A-04 with ENA study accession number: PRJEB31790” for “Dorea formicigenerans strain: DSM3992”, “7” for “6”; design: dose 5 uM, timepoint 0, 0.75, 1.5, 3, 6, 9, 12 hours; conditions: 5 µM
[5] = as §2, with “the gut metagenome community of T-05 with ENA study accession number: PRJEB31790” for “Capnocytophaga ochracea strain: DSM7271”, “7” for “6”; design: dose 5 uM, timepoint 0, 0.75, 1.5, 3, 6, 9, 12 hours; conditions: 5 µM
[6] = The drug is tested on Prevotella copri strain: DSM18205 for biotransformation under anaerobic condition. The drug concentrations were measured over 6 timepoints collected between 0 and 12 hours of incubation by liquid-chromatography-coupled mass spectrometry (LC–MS); design: dose 5 uM, timepoint 0, 1.5, 3, 6, 9, 12 hours; conditions: segatella copri, 5 µM
[7] = The drug is tested on Alloscardovia omnicolens strain: DSM21503 for biotransformation under microaerobic condition. The drug concentrations were measured over 6 timepoints collected between 0 and 12 hours of incubation by liquid-chromatography-coupled mass spectrometry (LC–MS); design: dose 5 uM, timepoint 0, 1.5, 3, 6, 9, 12 hours; conditions: 5 µM
[8] = The drug is tested on Streptococcus salivarius strain: DSM20560 for biotransformation under anaerobic condition. The drug concentrations were measured over 6 timepoints collected between 0 and 12 hours of incubation by liquid-chromatography-coupled mass spectrometry (LC–MS); design: dose 5 uM, timepoint 0, 1.5, 3, 6, 9, 12 hours; conditions: 5 µM
[9] = The drug is tested on Lactobacillus ruminis strain: ATCC25644 for biotransformation under anaerobic condition. The drug concentrations were measured over 6 timepoints collected between 0 and 12 hours of incubation by liquid-chromatography-coupled mass spectrometry (LC–MS); design: dose 5 uM, timepoint 0, 1.5, 3, 6, 9, 12 hours; conditions: ligilactobacillus ruminis, 5 µM
[10] = as §1, with “the gut metagenome community of P-01 with ENA study accession number: PRJEB31790” for “Dorea formicigenerans strain: DSM3992”, “7” for “6”; design: dose 5 uM, timepoint 0, 0.75, 1.5, 3, 6, 9, 12 hours; conditions: 5 µM
[11] = The drug is tested on Faecalibacterium prausnitzii strain: DSM17677 for biotransformation under anaerobic condition. The drug concentrations were measured over 6 timepoints collected between 0 and 12 hours of incubation by liquid-chromatography-coupled mass spectrometry (LC–MS); design: dose 5 uM, timepoint 0, 1.5, 3, 6, 9, 12 hours; conditions: faecalibacterium duncaniae, 5 µM
[12] = as §1, with “the gut metagenome community of A-05 with ENA study accession number: PRJEB31790” for “Dorea formicigenerans strain: DSM3992”, “7” for “6”; design: dose 5 uM, timepoint 0, 0.75, 1.5, 3, 6, 9, 12 hours; conditions: 5 µM
[13] = The drug is tested on Bacteroides thetaiotaomicron strain: DSM2079 for biotransformation under anaerobic condition. The drug concentrations were measured over 6 timepoints collected between 0 and 12 hours of incubation by liquid-chromatography-coupled mass spectrometry (LC–MS); design: dose 5 uM, timepoint 0, 1.5, 3, 6, 9, 12 hours; conditions: 5 µM
[14] = The drug is tested on Lactobacillus ruminis strain: ATCC25644 for biotransformation under microaerobic condition. The drug concentrations were measured over 6 timepoints collected between 0 and 12 hours of incubation by liquid-chromatography-coupled mass spectrometry (LC–MS); design: dose 5 uM, timepoint 0, 1.5, 3, 6, 9, 12 hours; conditions: ligilactobacillus ruminis, 5 µM
[15] = as §1, with “the gut metagenome community of T-05 with ENA study accession number: PRJEB31790” for “Dorea formicigenerans strain: DSM3992”, “7” for “6”; design: dose 5 uM, timepoint 0, 0.75, 1.5, 3, 6, 9, 12 hours; conditions: 5 µM
[16] = as §2, with “the gut metagenome community of P-02 with ENA study accession number: PRJEB31790” for “Capnocytophaga ochracea strain: DSM7271”, “7” for “6”; design: dose 5 uM, timepoint 0, 0.75, 1.5, 3, 6, 9, 12 hours; conditions: 5 µM
[17] = as §1, with “the gut metagenome community of P-02 with ENA study accession number: PRJEB31790” for “Dorea formicigenerans strain: DSM3992”, “7” for “6”; design: dose 5 uM, timepoint 0, 0.75, 1.5, 3, 6, 9, 12 hours; conditions: 5 µM
[18] = as §1, with “the gut metagenome community of A-01 with ENA study accession number: PRJEB31790” for “Dorea formicigenerans strain: DSM3992”, “7” for “6”; design: dose 5 uM, timepoint 0, 0.75, 1.5, 3, 6, 9, 12 hours; conditions: 5 µM
[19] = as §2, with “the gut metagenome community of A-09 with ENA study accession number: PRJEB31790” for “Capnocytophaga ochracea strain: DSM7271”, “7” for “6”; design: dose 5 uM, timepoint 0, 0.75, 1.5, 3, 6, 9, 12 hours; conditions: 5 µM
[20] = The drug is tested on Enterococcus faecalis strain: ATCC29212 for biotransformation under anaerobic condition. The drug concentrations were measured over 6 timepoints collected between 0 and 12 hours of incubation by liquid-chromatography-coupled mass spectrometry (LC–MS); design: dose 5 uM, timepoint 0, 1.5, 3, 6, 9, 12 hours; conditions: 5 µM
[21] = The drug is tested on Alloscardovia omnicolens strain: DSM21503 for biotransformation under anaerobic condition. The drug concentrations were measured over 6 timepoints collected between 0 and 12 hours of incubation by liquid-chromatography-coupled mass spectrometry (LC–MS); design: dose 5 uM, timepoint 0, 1.5, 3, 6, 9, 12 hours; conditions: 5 µM
[22] = The drug is tested on Streptococcus mitis strain: DSM12643 for biotransformation under microaerobic condition. The drug concentrations were measured over 6 timepoints collected between 0 and 12 hours of incubation by liquid-chromatography-coupled mass spectrometry (LC–MS); design: dose 5 uM, timepoint 0, 1.5, 3, 6, 9, 12 hours; conditions: 5 µM
[23] = The drug is tested on Roseburia intestinalis strain: DSM14610 for biotransformation under anaerobic condition. The drug concentrations were measured over 6 timepoints collected between 0 and 12 hours of incubation by liquid-chromatography-coupled mass spectrometry (LC–MS); design: dose 5 uM, timepoint 0, 1.5, 3, 6, 9, 12 hours; conditions: 5 µM
[24] = The drug is tested on Bacteroides fragilis strain: DSM2151 for biotransformation under anaerobic condition. The drug concentrations were measured over 6 timepoints collected between 0 and 12 hours of incubation by liquid-chromatography-coupled mass spectrometry (LC–MS); design: dose 5 uM, timepoint 0, 1.5, 3, 6, 9, 12 hours; conditions: 5 µM
[25] = as §2, with “the gut metagenome community of A-04 with ENA study accession number: PRJEB31790” for “Capnocytophaga ochracea strain: DSM7271”, “7” for “6”; design: dose 5 uM, timepoint 0, 0.75, 1.5, 3, 6, 9, 12 hours; conditions: 5 µM
[26] = The drug is tested on Enterococcus faecalis strain: ATCC29212 for biotransformation under microaerobic condition. The drug concentrations were measured over 6 timepoints collected between 0 and 12 hours of incubation by liquid-chromatography-coupled mass spectrometry (LC–MS); design: dose 5 uM, timepoint 0, 1.5, 3, 6, 9, 12 hours; conditions: 5 µM
[27] = The drug is tested on Bacteroides uniformis strain: DSM6597 for biotransformation under anaerobic condition. The drug concentrations were measured over 6 timepoints collected between 0 and 12 hours of incubation by liquid-chromatography-coupled mass spectrometry (LC–MS); design: dose 5 uM, timepoint 0, 1.5, 3, 6, 9, 12 hours; conditions: 5 µM
[28] = as §2, with “the gut metagenome community of A-10 with ENA study accession number: PRJEB31790” for “Capnocytophaga ochracea strain: DSM7271”, “7” for “6”; design: dose 5 uM, timepoint 0, 0.75, 1.5, 3, 6, 9, 12 hours; conditions: 5 µM
[29] = as §2, with “the gut metagenome community of A-07 with ENA study accession number: PRJEB31790” for “Capnocytophaga ochracea strain: DSM7271”, “7” for “6”; design: dose 5 uM, timepoint 0, 0.75, 1.5, 3, 6, 9, 12 hours; conditions: 5 µM
[30] = The drug is tested on Actinomyces graevenitzii strain: DSM15540 for biotransformation under microaerobic condition. The drug concentrations were measured over 6 timepoints collected between 0 and 12 hours of incubation by liquid-chromatography-coupled mass spectrometry (LC–MS); design: dose 5 uM, timepoint 0, 1.5, 3, 6, 9, 12 hours; conditions: 5 µM

Bacterial Biotransformation [1]	Bacterial Biotransformation [2]	Bacterial Biotransformation [3]	Bacterial Biotransformation [4]	Bacterial Biotransformation [5]	Bacterial Biotransformation [6]	Bacterial Biotransformation [7]	Bacterial Biotransformation [8]	Bacterial Biotransformation [9]	Bacterial Biotransformation [10]	Bacterial Biotransformation [11]	Bacterial Biotransformation [12]	Bacterial Biotransformation [13]	Bacterial Biotransformation [14]	Bacterial Biotransformation [15]	Bacterial Biotransformation [16]	Bacterial Biotransformation [17]	Bacterial Biotransformation [18]	Bacterial Biotransformation [19]	Bacterial Biotransformation [20]	Compound	further results
Compound NOT metabolized	Compound NOT metabolized	Compound metabolized	Compound metabolized	Compound NOT metabolized	Compound NOT metabolized	Compound NOT metabolized	Compound NOT metabolized	Compound NOT metabolized	Compound NOT metabolized	Compound NOT metabolized	Compound NOT metabolized	Compound NOT metabolized	Compound NOT metabolized	Compound NOT metabolized	Compound NOT metabolized	Compound metabolized	Compound NOT metabolized	Compound metabolized	Compound NOT metabolized	C[C@H]1C[C@H]2[C@@H]3CCC4=CC(=O)C=C[C@]4(C)[C@@]3(F)[C@@H](O)C[C@]2(C)[C@@]1(O)C(=O)CO [BETAMETHASONE]	Bacterial Biotransformation [21]: Compound NOT metabolized; Bacterial Biotransformation [22]: Compound NOT metabolized; Bacterial Biotransformation [23]: Compound NOT metabolized; Bacterial Biotransformation [24]: Compound NOT metabolized; Bacterial Biotransformation [25]: Compound metabolized; Bacterial Biotransformation [26]: Compound NOT metabolized; Bacterial Biotransformation [27]: Compound NOT metabolized; Bacterial Biotransformation [28]: Compound NOT metabolized; Bacterial Biotransformation [29]: Compound metabolized; Bacterial Biotransformation [30]: Compound NOT metabolized
Compound NOT metabolized	Compound NOT metabolized	Compound metabolized	Compound metabolized	Compound metabolized	Compound NOT metabolized	Compound NOT metabolized	Compound NOT metabolized	Compound NOT metabolized	Compound metabolized	Compound NOT metabolized	Compound metabolized	Compound NOT metabolized	Compound NOT metabolized	Compound NOT metabolized	Compound metabolized	Compound metabolized	Compound metabolized	Compound metabolized	Compound NOT metabolized	C[C@H]1C[C@@H]2[C@H]([C@@H](O)C[C@@]3(C)[C@H]2CC[C@]3(O)C(=O)CO)[C@@]2(C)C=CC(=O)C=C12 [METHYLPREDNISOLONE]	Bacterial Biotransformation [21]: Compound NOT metabolized; Bacterial Biotransformation [22]: Compound NOT metabolized; Bacterial Biotransformation [23]: Compound NOT metabolized; Bacterial Biotransformation [24]: Compound NOT metabolized; Bacterial Biotransformation [25]: Compound metabolized; Bacterial Biotransformation [26]: Compound NOT metabolized; Bacterial Biotransformation [27]: Compound NOT metabolized; Bacterial Biotransformation [28]: Compound metabolized; Bacterial Biotransformation [29]: Compound metabolized; Bacterial Biotransformation [30]: Compound NOT metabolized
Compound NOT metabolized	Compound NOT metabolized	Compound NOT metabolized	Compound NOT metabolized	Compound NOT metabolized	Compound NOT metabolized	Compound NOT metabolized	Compound NOT metabolized	Compound NOT metabolized	Compound NOT metabolized	Compound NOT metabolized	Compound NOT metabolized	Compound NOT metabolized	Compound NOT metabolized	Compound NOT metabolized	Compound NOT metabolized	Compound NOT metabolized	Compound NOT metabolized	Compound NOT metabolized	Compound NOT metabolized	CCOC(=O)[C@H](CCc1ccccc1)N[C@@H](C)C(=O)N1[C@H](C(=O)O)C[C@@H]2CCC[C@@H]21	Bacterial Biotransformation [21]: Compound NOT metabolized; Bacterial Biotransformation [22]: Compound NOT metabolized; Bacterial Biotransformation [23]: Compound NOT metabolized; Bacterial Biotransformation [24]: Compound NOT metabolized; Bacterial Biotransformation [25]: Compound NOT metabolized; Bacterial Biotransformation [26]: Compound NOT metabolized; Bacterial Biotransformation [27]: Compound NOT metabolized; Bacterial Biotransformation [28]: Compound NOT metabolized; Bacterial Biotransformation [29]: Compound NOT metabolized; Bacterial Biotransformation [30]: Compound NOT metabolized
